Results reported in ChEMBL document CHEMBL1154382, “Preliminary SAR analysis of novel antiproliferative N(6),5'-bis-ureidoadenosine derivatives” (2009).

Assays:
Format in all cases: functional
[1] = system: IGROV-1; assay: Antiproliferative activity against human IGROV1 cells at 10 uM assessed as cell growth inhibition relative to control; conditions: values are per cent of control
[2] = system: SN12C; assay: Antiproliferative activity against human SN12C cells
[3] = system: UACC-257; assay: Antiproliferative activity against human UACC257 cells at 10 uM assessed as cell growth inhibition relative to control; conditions: values are per cent of control
[4] = system: SF-268; assay: Antiproliferative activity against human SF268 cells at 10 uM assessed as cell growth inhibition relative to control; conditions: values are per cent of control
[5] = system: PC-3; assay: Antiproliferative activity against human PC3 cells
[6] = system: HOP-62; assay: Antiproliferative activity against human HOP62 cells
[7] = system: OVCAR-3; assay: Antiproliferative activity against human OVCAR-3 cells at 10 uM assessed as cell growth inhibition relative to control; conditions: values are per cent of control
[8] = system: SNB-75; assay: Antiproliferative activity against human SNB75 cells at 10 uM assessed as cell growth inhibition relative to control; conditions: values are per cent of control
[9] = system: ACHN; assay: Antiproliferative activity against human ACHN cells
[10] = system: LOX IMVI; assay: Antiproliferative activity against human LOXIMVI cells
[11] = system: NCI-H522; assay: Antiproliferative activity against human NCI-H522 cells
[12] = system: HL-60(TB); assay: Antiproliferative activity against human HL-60(TB) cells
[13] = system: A498; assay: Antiproliferative activity against human A498 cells at 10 uM assessed as cell growth inhibition relative to control; conditions: values are per cent of control
[14] = system: MDA-MB-231; assay: Antiproliferative activity against human MDA-MB-231 cells
[15] = system: HCT-15; assay: Antiproliferative activity against human HCT15 cells
[16] = system: NCI-H322M; assay: Antiproliferative activity against human NCI-H322M cells
[17] = system: SK-MEL-2; assay: Antiproliferative activity against human SK-MEL-2 cells at 10 uM assessed as cell growth inhibition relative to control; conditions: values are per cent of control
[18] = Antiproliferative activity against human Hs 578T cells at 10 uM assessed as cell growth inhibition relative to control; conditions: values are per cent of control
[19] = system: UO-31; assay: Antiproliferative activity against human UO31 cells at 10 uM assessed as cell growth inhibition relative to control; conditions: values are per cent of control
[20] = system: SF-295; assay: Antiproliferative activity against human SF295 cells
[21] = system: SK-MEL-5; assay: Antiproliferative activity against human SK-MEL-5 cells
[22] = system: M14; assay: Antiproliferative activity against human M14 cells
[23] = system: RXF 393; assay: Antiproliferative activity against human RXF393 cells
[24] = system: EKVX; assay: Antiproliferative activity against human EKVX cells at 10 uM assessed as cell growth inhibition relative to control; conditions: values are per cent of control
[25] = system: PC-3; assay: Antiproliferative activity against human PC3 cells at 10 uM assessed as cell growth inhibition relative to control; conditions: values are per cent of control
[26] = system: SK-MEL-28; assay: Antiproliferative activity against human SK-MEL-28 cells
[27] = system: CAKI-1; assay: Antiproliferative activity against human Caki1 cells at 10 uM assessed as cell growth inhibition relative to control; conditions: values are per cent of control
[28] = system: OVCAR-5; assay: Antiproliferative activity against human OVCAR5 cells
[29] = system: HCC 2998; assay: Antiproliferative activity against human HCC2998 cells at 10 uM assessed as cell growth inhibition relative to control; conditions: values are per cent of control
[30] = system: OVCAR-5; assay: Antiproliferative activity against human OVCAR5 cells at 10 uM assessed as cell growth inhibition relative to control; conditions: values are per cent of control
[31] = system: K562; assay: Antiproliferative activity against human K562 cells
[32] = system: SF-539; assay: Antiproliferative activity against human SF539 cells at 10 uM assessed as cell growth inhibition relative to control; conditions: values are per cent of control
[33] = system: HT-29; assay: Antiproliferative activity against human HT-29 cells at 10 uM assessed as cell growth inhibition relative to control; conditions: values are per cent of control
[34] = system: COLO 205; assay: Antiproliferative activity against human COLO205 cells
[35] = system: SW-620; assay: Antiproliferative activity against human SW620 cells
[36] = system: SK-OV-3; assay: Antiproliferative activity against human SKOV3 cells
[37] = system: NCI-H226; assay: Antiproliferative activity against human NCI-H226 cells
[38] = system: SK-MEL-28; assay: Antiproliferative activity against human SK-MEL-28 cells at 10 uM assessed as cell growth inhibition relative to control; conditions: values are per cent of control
[39] = system: NCI-H522; assay: Antiproliferative activity against human NCI-H522 cells at 10 uM assessed as cell growth inhibition relative to control; conditions: values are per cent of control
[40] = system: HCC 2998; assay: Antiproliferative activity against human HCC2998 cells
[41] = system: HT-29; assay: Antiproliferative activity against human HT-29 cells
[42] = system: IGROV-1; assay: Antiproliferative activity against human IGROV1 cells
[43] = Antiproliferative activity against human […] cells
[44] = system: LOX IMVI; assay: Antiproliferative activity against human LOXIMVI cells at 10 uM assessed as cell growth inhibition relative to control; conditions: values are per cent of control
[45] = system: NCI-H23; assay: Antiproliferative activity against human NCI-H23 cells at 10 uM assessed as cell growth inhibition relative to control; conditions: values are per cent of control
[46] = system: HOP-92; assay: Antiproliferative activity against human HOP92 cells
[47] = system: SF-295; assay: Antiproliferative activity against human SF295 cells at 10 uM assessed as cell growth inhibition relative to control; conditions: values are per cent of control
[48] = system: HL-60(TB); assay: Antiproliferative activity against human HL-60(TB) cells at 10 uM assessed as cell growth inhibition relative to control; conditions: values are per cent of control
[49] = system: MOLT-4; assay: Antiproliferative activity against human MOLT4 cells at 10 uM assessed as cell growth inhibition relative to control; conditions: values are per cent of control
[50] = system: Malme-3M; assay: Antiproliferative activity against human MALME-3M cells
[51] = system: TK-10; assay: Antiproliferative activity against human TK10 cells
[52] = system: CCRF-CEM; assay: Antiproliferative activity against human CCRF-CEM cells at 10 uM assessed as cell growth inhibition relative to control; conditions: values are per cent of control
[53] = system: OVCAR-3; assay: Antiproliferative activity against human OVCAR-3 cells
[54] = system: MDA-MB-468; assay: Antiproliferative activity against human MDA-MB-468 cells at 10 uM assessed as cell growth inhibition relative to control; conditions: values are per cent of control
[55] = system: OVCAR-4; assay: Antiproliferative activity against human OVCAR4 cells at 10 uM assessed as cell growth inhibition relative to control; conditions: values are per cent of control
[56] = system: K562; assay: Antiproliferative activity against human K562 cells at 10 uM assessed as cell growth inhibition relative to control; conditions: values are per cent of control
[57] = system: SF-268; assay: Antiproliferative activity against human SF268 cells
[58] = system: KM12; assay: Antiproliferative activity against human KM12 cells at 10 uM assessed as cell growth inhibition relative to control; conditions: values are per cent of control
[59] = system: BT-549; assay: Antiproliferative activity against human BT549 cells at 10 uM assessed as cell growth inhibition relative to control; conditions: values are per cent of control
[60] = system: DU-145; assay: Antiproliferative activity against human DU145 cells at 10 uM assessed as cell growth inhibition relative to control; conditions: values are per cent of control
[61] = system: NCI-H460; assay: Antiproliferative activity against human NCI-H460 cells

With `CCOC(=O)C[C@H]1[C@@H](O[Si](C)(C)C(C)(C)C)[C@H](n2cnc3c(NC(=O)Nc4ccccc4)ncnc32)O[C@@H]1COC(=O)NC` the growth, % of control at 10 µM [1] was 49%, the GI50 [2] was 2.17 µM and the growth, % of control at 10 µM [3] was 60%. It also gave a growth, % of control at 10 µM [4] of 60%, a GI50 [5] of 2.87 µM and a GI50 [6] of 14.7 µM. For the same compound, the growth, % of control at 10 µM [7] was 51%, the growth, % of control at 10 µM [8] was 45% and the GI50 [9] was 5.92 µM. For the same compound, the GI50 [10] was 7.78 µM, the GI50 [11] was 9.58 µM and the GI50 [12] was 0.00139 µM. The growth, % of control at 10 µM [13] was 77%, the GI50 [14] was 17.5 µM and the GI50 [15] was 11.7 µM. The GI50 [16] was 31.7 µM, the growth, % of control at 10 µM [17] was 60% and the growth, % of control at 10 µM [18] was 57%. The growth, % of control at 10 µM [19] was 42%, the GI50 [20] was 2.83 µM and the GI50 [21] was 5.7 µM. It also gave a GI50 [22] of 6.37 µM, a GI50 [23] of 2.94 µM and a growth, % of control at 10 µM [24] of 68%. It also gave a growth, % of control at 10 µM [25] of 32%, a GI50 [26] of 7.77 µM and a growth, % of control at 10 µM [27] of 61%. For the same compound, the GI50 [28] was 12.8 µM, the growth, % of control at 10 µM [29] was -9% and the growth, % of control at 10 µM [30] was 94%. It also gave a GI50 [31] of 3.09 µM, a growth, % of control at 10 µM [32] of 33% and a growth, % of control at 10 µM [33] of 9%. For the same compound, the GI50 [34] was 7.7 µM, the GI50 [35] was 4.59 µM and the GI50 [36] was 40.4 µM. The GI50 [37] was 11.8 µM, the growth, % of control at 10 µM [38] was 72% and the growth, % of control at 10 µM [39] was 45%. The GI50 [40] was 8.76 µM, the GI50 [41] was 3.97 µM and the GI50 [42] was 13.7 µM. It also gave a GI50 [43] of 2.16 µM, a growth, % of control at 10 µM [44] of 49% and a growth, % of control at 10 µM [45] of 88%. It also gave a GI50 [46] of 6.52 µM, a growth, % of control at 10 µM [47] of 66% and a growth, % of control at 10 µM [48] of 23%. For the same compound, the growth, % of control at 10 µM [49] was 34%, the GI50 [50] was 3.34 µM and the GI50 [51] was 10.7 µM. The growth, % of control at 10 µM [52] was 57%, the GI50 [53] was 2.42 µM and the growth, % of control at 10 µM [54] was 62%. The growth, % of control at 10 µM [55] was 42%, the growth, % of control at 10 µM [56] was 23% and the GI50 [57] was 5.06 µM. It also gave a growth, % of control at 10 µM [58] of 31%, a growth, % of control at 10 µM [59] of 65% and a growth, % of control at 10 µM [60] of 59%. It also gave a GI50 [61] of 4.45 µM.
